{"source": "patent US10617674B2", "about": "“Dosage regimen for the treatment of acute exacerbations of inflammatory conditions” (MEREO BIOPHARMA 1 LIMITED, priority 2016, dated 2020)", "key": {"[1]": {"biological_target": "p38a (Homo sapiens, UniProt Q16539)", "sequence (Q16539 whole entry)": "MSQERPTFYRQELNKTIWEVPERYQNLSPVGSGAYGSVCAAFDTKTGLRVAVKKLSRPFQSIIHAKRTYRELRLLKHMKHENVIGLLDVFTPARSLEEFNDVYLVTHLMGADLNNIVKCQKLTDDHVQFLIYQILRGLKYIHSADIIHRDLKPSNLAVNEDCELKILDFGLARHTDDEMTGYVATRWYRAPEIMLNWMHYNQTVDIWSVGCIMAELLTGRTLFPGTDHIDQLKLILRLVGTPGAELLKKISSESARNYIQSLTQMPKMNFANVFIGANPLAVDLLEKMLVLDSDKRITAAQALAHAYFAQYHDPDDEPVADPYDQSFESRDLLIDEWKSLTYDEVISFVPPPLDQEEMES", "assay": "p38a kinase K (Ki) and IC50 values", "type": "biochemical"}, "[2]": {"biological_target": "p3813 (Homo sapiens, UniProt Q15759)", "sequence (Q15759 whole entry)": "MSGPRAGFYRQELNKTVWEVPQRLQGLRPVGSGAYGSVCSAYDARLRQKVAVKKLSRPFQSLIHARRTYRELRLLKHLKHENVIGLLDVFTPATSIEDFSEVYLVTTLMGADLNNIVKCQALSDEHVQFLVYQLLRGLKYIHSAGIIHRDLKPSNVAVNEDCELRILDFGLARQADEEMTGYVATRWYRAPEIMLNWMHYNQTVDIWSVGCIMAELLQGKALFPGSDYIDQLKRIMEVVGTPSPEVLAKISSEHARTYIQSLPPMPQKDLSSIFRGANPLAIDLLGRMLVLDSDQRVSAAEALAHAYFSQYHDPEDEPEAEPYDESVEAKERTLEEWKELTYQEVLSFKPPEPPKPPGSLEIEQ", "assay": "p3813 kinase K (Ki) and IC50 values", "type": "biochemical"}, "[3]": {"assay": "PK profile of the Day 1, 3 and 5 oral dosing regimen (drug levels)", "type": "in vivo, human", "source_text": "This study investigated the efficacy, safety and tolerability of two different dosing regimens of 3-[5-amino-4-(3-cyanobenzoyl)-pyrazol-1-yl]-N-cyclopropyl-4-methyl benzamide added to SoC (systemic corticosteroids and/or antibiotics) versus placebo added to SoC in subjects with severe acute exacerbations of asthma. The proposed doses take into account trough levels based on PK modelling to ensure that the drug rapidly achieves and remains at effective concentrations between doses.\nOverall, a dose-dependent reduction in TNF-α levels has been observed following doses ranging from 0.1 to 75 mg 3-[5-amino-4-(3-cyanobenzoyl)-pyrazol-1-yl]-N-cyclopropyl-4-methylbenzamide, although flattening of this effect to between 45 to 50% of placebo levels occurred between doses of 30 and 75 mg. A number of PK studies have been performed looking at both dosing intervals (Days 1, 3 and 5 (FIGS. 1-4, top panels) versus Days 1, 4 and 7 (FIGS. 1-4 bottom panels)), as well as dose levels (approximately 75/40/40 mg (FIG. 1); approximately 75/20/20 (FIG. 2); approximately 40/40/40 mg (FIG. 3); approximately 40/20/20 mg (FIG. 4), etc.). Based on exposures of the various regimens, there is limited benefit in dosing beyond Day 5 for a typical exacerbation."}, "[4]": {"assay": "Oral bioavailability in the rat", "conditions": "in vivo, estimated"}, "[5]": {"assay": "Oral bioavailability in the dog", "conditions": "in vivo, estimated"}, "[6]": {"assay": "Oral bioavailability in the monkey", "conditions": "in vivo, estimated"}, "[7]": {"assay": "Plasma protein binding, free fraction in human plasma samples", "type": "in vitro ADME"}, "[8]": {"tested_on": "p38a and p3813", "assay": "Estimated enzyme inhibition from drug levels relative to Ki and IC50", "description": "The concentration based on free fraction is at or above 740 nM for the duration of the dosing interval. Cmax is approximately 2 μM based on the first dose."}}}
{"compound": "Cc1ccc(C(=O)NC2CC2)cc1-n1ncc(C(=O)c2cccc(C#N)c2)c1N", "note": "[3-[5-amino-4-(3-cyanobenzoyl)-pyrazol-1-yl]-N-cyclopropyl-4-methylbenzamide]", "values": [{"measurement": "IC50", "setting": "[1]", "value": 37, "unit": "nM"}, {"measurement": "Ki", "setting": "[1]", "value": 49, "unit": "nM"}, {"measurement": "IC50", "setting": "[2]", "value": 106, "unit": "nM"}, {"measurement": "Ki", "setting": "[2]", "value": 72, "unit": "nM"}, {"measurement": "drug levels maintained", "setting": "[3]; dosing at Day 1, 3 and 5", "value": "above 220 ng/mL"}, {"measurement": "plasma concentration", "setting": "[3]; dosing at Day 1, 3 and 5", "value": 5700, "unit": "nM"}, {"measurement": "concentration based on free fraction", "setting": "[3]; for the duration of the dosing interval", "value": "≥ 740", "unit": "nM"}, {"measurement": "Cmax", "setting": "[3]; human, plasma, oral, based on the first dose", "value": "~2000", "unit": "nM"}, {"measurement": "bioavailability", "setting": "[4]", "value": 93, "unit": "%"}, {"measurement": "bioavailability", "setting": "[5]", "value": 87, "unit": "%"}, {"measurement": "bioavailability", "setting": "[6]", "value": 90, "unit": "%"}, {"measurement": "fraction unbound", "setting": "[7]", "value": "0.13 to 0.25"}, {"measurement": "duration of >99% enzyme inhibition", "setting": "[8]", "value": 6, "unit": "days"}, {"measurement": "enzyme inhibition", "setting": "[8]", "value": "> 99", "unit": "%"}]}
